Measured values taken from the supplement of paper PMC10307832.

Experiments:
Experiment in all cases: relative viability (nuclei count vs DMSO), 5 days (fraction); higher = more cells survive
[1] = compound: Cn1cc(-c2cnn3c(N)c(Br)c([C@@H]4CCCNC4)nc23)cn1 + N=C(N)NC(=N)NCCc1ccccc1 [Phenformin] (partner 250 µM)
How it was run: (§1)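 Relative viability divides the nuclei count in treated wells by that in vehicle wells. Lung cancer cell lines were seeded in 1536-well plates, dosed by pin tool the next day, and fixed and stained after 5 days in one step with final 0.05% Triton X-100, 1% formaldehyde and 1 ug/ml Hoechst. Dosing was a single drug or a fixed anchor-drug dose plus five library-drug doses (not always all listed) in √10 steps, and values are medians of duplicate plates imaged at 4×.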

[2] = compound: Cn1cc(-c2cnn3c(N)c(Br)c([C@@H]4CCCNC4)nc23)cn1 + CC1(C)CCC(c2ccc(Cl)cc2)=C(CN2CCN(c3ccc(C(=O)NS(=O)(=O)c4ccc(N[C@H](CCN5CCOCC5)CSc5ccccc5)c(S(=O)(=O)C(F)(F)F)c4)cc3)CC2)C1 [Navitoclax] (partner 0.5 µM)
How it was run: as §1

[3] = compound: Cn1cc(-c2cnn3c(N)c(Br)c([C@@H]4CCCNC4)nc23)cn1 + CC(=O)Nc1cccc(-n2c(=O)n(C3CC3)c(=O)c3c(Nc4ccc(I)cc4F)n(C)c(=O)c(C)c32)c1 [Trametinib] (partner 0.02 µM)
How it was run: as §1

[4] = compound: Cn1cc(-c2cnn3c(N)c(Br)c([C@@H]4CCCNC4)nc23)cn1 + Nc1nc2[nH]cc(CCc3ccc(C(=O)N[C@@H](CCC(=O)O)C(=O)O)cc3)c2c(=O)[nH]1 [Pemetrexed] (partner 0.2 µM)
How it was run: as §1

Cell Line | relative viability ([1]; first compound 0.1581 µM) | relative viability ([1]; first compound 0.5 µM) | relative viability ([1]; first compound 1.581 µM) | relative viability ([1]; first compound 5 µM) | relative viability ([2]; first compound 0.05 µM) | relative viability ([2]; first compound 0.1581 µM) | relative viability ([2]; first compound 0.5 µM) | relative viability ([2]; first compound 1.581 µM) | relative viability ([2]; first compound 5 µM) | relative viability ([3]; first compound 0.05 µM) | relative viability ([3]; first compound 0.1581 µM) | relative viability ([3]; first compound 0.5 µM) | relative viability ([3]; first compound 1.581 µM) | relative viability ([3]; first compound 5 µM) | relative viability ([4]; first compound 0.05 µM) | relative viability ([4]; first compound 0.1581 µM) | relative viability ([4]; first compound 0.5 µM) | relative viability ([4]; first compound 1.581 µM) | relative viability ([4]; first compound 5 µM) | relative viability ([1]; first compound 0.05 µM)
HCC-78 | 0.687 | 0.796 | 0.7 | 0.605 | 0.851 | 0.794 | 0.796 | 0.737 | 0.56 | 0.822 | 1.14 | 0.834 | 0.844 | 0.674 | 0.912 | 0.842 | 0.869 | 0.869 | 0.743 | –
NCI-H2405 | 0.522 | 0.398 | 0.363 | 0.318 | 0.815 | 0.976 | 0.904 | 0.867 | 0.624 | 0.642 | 0.644 | 0.553 | 0.577 | 0.455 | 0.968 | 1.05 | 1.05 | 0.991 | 0.709 | 0.384
SK-LU-1 | 0.426 | 0.299 | 0.254 | 0.184 | 0.717 | – | 0.254 | 0.188 | 0.186 | 0.616 | 0.423 | 0.422 | 0.328 | 0.292 | 0.955 | 0.612 | 0.536 | 0.321 | 0.227 | 0.515
EMC-BAC-2 | 0.509 | 0.505 | 0.405 | 0.461 | 1.26 | 1.25 | 1.14 | 1.01 | 1.43 | 0.885 | 0.664 | 0.927 | 0.878 | 0.515 | 0.478 | 0.386 | 0.399 | 0.433 | 0.462 | 0.515
NCI-H1650 | 0.505 | 0.403 | 0.33 | 0.218 | 1.27 | 1.23 | 1.25 | 0.845 | 0.67 | 0.559 | 0.551 | 0.487 | 0.405 | 0.428 | 0.368 | 0.288 | 0.292 | 0.239 | 0.224 | –
NCI-H596 | 0.825 | 0.729 | 0.561 | 0.691 | 1.01 | 1.02 | 1.13 | 0.847 | 0.904 | 0.899 | 0.832 | 0.886 | 0.768 | 0.832 | 0.481 | 0.462 | 0.534 | 0.371 | 0.326 | 0.865
LCLC-97TM1 | 0.47 | 0.464 | 0.458 | 0.411 | 0.462 | 0.439 | 0.325 | 0.343 | 0.46 | 0.151 | 0.202 | 0.182 | 0.207 | 0.224 | 0.172 | 0.185 | 0.189 | 0.171 | 0.126 | 0.499
H3255 | 0.353 | 0.345 | 0.385 | 0.322 | 0.561 | 0.507 | 0.379 | 0.531 | 0.29 | 0.694 | 0.534 | 0.668 | 0.633 | 0.405 | 0.537 | 0.536 | 0.56 | 0.483 | 0.461 | 0.372
LXF-289 | 0.57 | 0.496 | 0.486 | 0.528 | 0.96 | 1.06 | 1.07 | 0.906 | 1.02 | 0.712 | 0.71 | 0.662 | 0.62 | 0.673 | 0.985 | 0.953 | 0.823 | 0.779 | 0.645 | 0.525
UMC-11 | 0.309 | 0.32 | 0.305 | 0.274 | 0.316 | 0.268 | 0.298 | 0.271 | 0.229 | 0.753 | 0.684 | 0.502 | 0.579 | 0.402 | 0.841 | 0.753 | 0.626 | 0.657 | 0.429 | 0.337
LC-2-ad | 0.643 | 0.64 | 0.539 | 0.529 | 0.394 | 0.606 | 0.395 | 0.423 | 0.429 | 0.974 | 0.986 | 0.935 | 0.931 | 0.961 | 0.293 | 0.295 | 0.265 | 0.25 | 0.239 | 0.558
SK-MES-1 | 0.735 | 0.663 | 0.419 | 0.188 | 1.29 | 1.25 | 1.11 | 1.02 | 0.352 | 0.595 | 0.567 | 0.607 | 0.346 | 0.222 | 1.05 | 0.755 | 0.651 | 0.351 | 0.258 | 0.664
A-427 | 0.324 | 0.288 | 0.284 | 0.269 | 1.06 | 1 | 0.9 | 0.953 | 0.733 | 0.756 | 0.675 | 0.704 | 0.651 | 0.341 | 0.938 | 0.99 | 1.03 | 0.837 | 0.46 | 0.348
NCI-H322M | 0.595 | 0.717 | 0.474 | 0.254 | 1.08 | 1.24 | 1.18 | 1.2 | 1.19 | 0.553 | 0.495 | 0.519 | 0.491 | 0.391 | 0.602 | 0.548 | 0.561 | 0.49 | 0.363 | 0.681
HCC-366 | 0.67 | 0.618 | 0.558 | 0.507 | 1.11 | 1.07 | 1.09 | 0.918 | 0.771 | 0.388 | 0.311 | 0.301 | 0.284 | 0.286 | 0.166 | 0.108 | 0.128 | 0.0814 | 0.0667 | 0.617
NCI-H1975 | 0.435 | 0.443 | 0.338 | 0.356 | 1.21 | 1.14 | 1.01 | 0.908 | 0.989 | 0.356 | 0.328 | 0.326 | 0.331 | 0.239 | 0.304 | 0.25 | 0.249 | 0.261 | 0.189 | 0.44
NCI-H1437 | 0.296 | 0.32 | 0.214 | 0.229 | 1.15 | 1.25 | 1.05 | 1.03 | 1.08 | 0.504 | 0.611 | 0.562 | 0.428 | 0.355 | 0.294 | 0.226 | 0.248 | 0.172 | 0.194 | 0.272
NCI-H2009 | 0.507 | 0.453 | 0.434 | 0.409 | 1.16 | 1.28 | 1.1 | 1.1 | 1 | 0.272 | 0.284 | 0.271 | 0.252 | 0.224 | 1.01 | 1.02 | 0.99 | 0.895 | 0.683 | 0.487
NCI-H1651 | 0.336 | 0.318 | 0.223 | 0.173 | 1.06 | 1.36 | 0.865 | 0.555 | 0.408 | 0.885 | 0.925 | 0.88 | 0.857 | 0.461 | 0.549 | 0.406 | 0.559 | 0.32 | 0.198 | 0.331
NCI-H1666 | 0.552 | 0.573 | 0.549 | 0.593 | 0.906 | 0.956 | 0.871 | 0.829 | 0.842 | 0.92 | 0.867 | 0.892 | 0.959 | 0.71 | 0.837 | 0.826 | 0.749 | 0.63 | 0.658 | 0.536
NCI-H1734 | 0.457 | 0.373 | 0.349 | 0.319 | 0.885 | 0.906 | 0.918 | 0.57 | 0.733 | 0.667 | 0.802 | 0.665 | 0.658 | 0.576 | 0.411 | 0.384 | 0.347 | 0.307 | 0.265 | 0.368
EPLC-272H | 0.275 | 0.321 | 0.292 | 0.188 | 1.2 | 1.1 | 1.2 | 0.966 | 0.969 | 0.276 | 0.273 | 0.286 | 0.272 | 0.218 | 0.268 | 0.186 | 0.139 | 0.106 | 0.098 | 0.288
NCI-H2023 | 0.368 | 0.245 | 0.203 | 0.129 | 1.06 | 0.727 | 0.789 | 0.304 | 0.192 | 0.606 | 0.336 | 0.416 | 0.227 | 0.185 | 0.175 | 0.124 | 0.115 | 0.118 | 0.112 | 0.426
BEN | 0.213 | 0.288 | 0.268 | 0.284 | 0.0592 | 0.289 | 0.0589 | 0.0666 | 0.0768 | 1.19 | 1.01 | 0.907 | 0.966 | 0.881 | 0.763 | 0.825 | 0.719 | 0.708 | 0.616 | 0.249
COR-L 105 | 0.508 | 0.452 | 0.379 | 0.301 | 0.742 | 0.693 | 0.649 | 0.713 | 0.454 | 0.424 | 0.436 | 0.414 | 0.417 | 0.422 | 0.939 | 0.921 | 1.08 | 0.92 | 0.82 | 0.504
HCC-15 | 0.524 | 0.429 | 0.406 | 0.349 | 0.803 | 0.792 | 0.635 | 0.626 | 0.669 | 0.38 | 0.421 | 0.379 | 0.393 | 0.409 | 0.206 | 0.232 | 0.227 | 0.226 | 0.207 | 0.494
NCI-H2170 | 0.441 | 0.429 | 0.429 | 0.429 | 0.584 | 0.554 | 0.453 | 0.527 | 0.713 | 0.973 | 0.93 | 0.927 | 0.763 | 1.13 | 0.268 | 0.258 | 0.26 | 0.256 | 0.223 | 0.415
